The values that follow come from patent publication US11459313B2, “Aziridinyl and amino dimeric naphthoquinone compounds and use for acute myeloid leukemia” (University of Maryland, Baltimore, priority 2016, dated 2022).

Assay [1] has as its system AML cells. Nature of the assay: Cell proliferation assays, AML cells (lines not given singly). Format: cell-based, human. The note with it: MV4-11 and MOLM14, proliferation IC50. On the procedure: (§1) Primary AML cells from patients and cell lines were seeded into 96-well plates the afternoon prior to treatment. Eighteen hours later, amino-dimeric naphthoquinone Compounds 106, 101, and 114 were semi-serially diluted in dimethyl sulfoxide (DMSO) and then growth medium, and added to the cells. In order to quantitate proliferation of metabolically active cells, plates were incubated for 72 hours for cell lines and 48 hours for primary AML cells prior to addition of water-soluble tetrazolium (WST-1) (Clontech®). Plates were read after four additional hours of incubation at 37° C. using a Bio-Tek Synergy® HT plate reader (Bio-Tele®). Data were analyzed and graphed using GraphPad Prism® Software (GraphPad®). IC50 was defined as the concentration that decreases viable cell numbers by 50%. IC50 values were calculated as mean±standard deviation from at least two independent experiments. If availability of primary blasts was limited, the IC50 was obtained from a single experiment.
(§2) Two AML cell lines (MV4-11 & MOLM14) were treated with increasing doses of the clinically used naphthoquinones, atovaquone and vitamin K, as well as with Compound 102; and IC50 curves were generated with respect to cell proliferation as described above.

For another assay, the target named is T1, IDO-2 (Homo sapiens, UniProt Q6ZQW0).
T1 sequence (Q6ZQW0 1-407): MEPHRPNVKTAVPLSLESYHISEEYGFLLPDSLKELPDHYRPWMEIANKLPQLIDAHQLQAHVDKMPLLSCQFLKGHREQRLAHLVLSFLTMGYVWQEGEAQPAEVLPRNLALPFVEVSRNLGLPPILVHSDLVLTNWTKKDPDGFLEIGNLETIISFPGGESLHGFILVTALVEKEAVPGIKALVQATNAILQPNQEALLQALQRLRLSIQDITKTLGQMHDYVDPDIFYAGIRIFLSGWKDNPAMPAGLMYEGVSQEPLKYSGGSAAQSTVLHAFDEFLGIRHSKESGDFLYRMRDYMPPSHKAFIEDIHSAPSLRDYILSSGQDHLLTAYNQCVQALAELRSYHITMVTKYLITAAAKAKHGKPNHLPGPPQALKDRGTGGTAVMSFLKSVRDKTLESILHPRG
Nature of the assay: IDO-2 activity. Format: biochemical. The source says: (§3) Methods were as described and according to known methods.

The target in assay [2] is tryptophan-2,3-dioxygenase (TDO) (Homo sapiens, UniProt P48775). Briefly: TDO activity. Format: biochemical.
tryptophan-2,3-dioxygenase (TDO), sequence (P48775 whole entry, species assumed): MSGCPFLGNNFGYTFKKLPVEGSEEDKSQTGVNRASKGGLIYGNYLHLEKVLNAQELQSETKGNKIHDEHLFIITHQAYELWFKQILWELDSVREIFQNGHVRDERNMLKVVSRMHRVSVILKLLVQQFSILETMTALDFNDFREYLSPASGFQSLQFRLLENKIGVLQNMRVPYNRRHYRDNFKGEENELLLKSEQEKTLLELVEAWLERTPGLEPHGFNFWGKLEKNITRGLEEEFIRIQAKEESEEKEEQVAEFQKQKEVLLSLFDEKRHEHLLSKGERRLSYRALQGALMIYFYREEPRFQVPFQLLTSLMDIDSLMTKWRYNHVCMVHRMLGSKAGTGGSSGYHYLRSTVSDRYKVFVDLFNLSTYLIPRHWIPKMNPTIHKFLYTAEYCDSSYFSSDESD
Excerpt: as §3

Assay [3] concerns MV4-11 cells. Nature of the assay: Cellular reactive oxygen species (H2DCFA), MV4-11. It counts as cell-based, human. On the procedure:
MOLM-14 and THP-1 cells in logarithmic growth phase were centrifuged and resuspended in PBS at one million cells per milliliter (mL) of medium. Cells were preloaded with 2′,7′-dichlorodihydrofluorescein diacetate (H2DCFA, Life Technologies®) at a final concentration of 2 μM and incubated at 37° C. in the dark for 25 minutes. Cells were centrifuged and resuspended at one million per mL in phenol red-free RPMI plus 10% FBS and incubated at 37° C. in the dark for 25 minutes. Treatments were prepared at 2× concentrations of […] in complete phenol red-free RPMI and added to each well to yield 1× concentrations of 20, 10, 2, or 0.5 μM. Cells were incubated in the dark at 37° C. and measurement of ROS was performed with a Bio-tek® Synergy HT plate reader at various time points post treatment.
as §2
The amount of reactive oxygen species (ROS) that cells produced upon treatment with Compound 102 then was examined. See results in FIG. 9B. The cells were loaded with the ROS dye H2DCFA and subsequently plated into 96-well plates. […] The relative fluorescence units (RFU) were read at various time points. […]

The next assay deals with IDO-1 (Homo sapiens, UniProt P14902). Nature of the assay: IDO1 activity assay. Format: biochemical.
IDO-1, sequence (P14902 whole entry, species assumed): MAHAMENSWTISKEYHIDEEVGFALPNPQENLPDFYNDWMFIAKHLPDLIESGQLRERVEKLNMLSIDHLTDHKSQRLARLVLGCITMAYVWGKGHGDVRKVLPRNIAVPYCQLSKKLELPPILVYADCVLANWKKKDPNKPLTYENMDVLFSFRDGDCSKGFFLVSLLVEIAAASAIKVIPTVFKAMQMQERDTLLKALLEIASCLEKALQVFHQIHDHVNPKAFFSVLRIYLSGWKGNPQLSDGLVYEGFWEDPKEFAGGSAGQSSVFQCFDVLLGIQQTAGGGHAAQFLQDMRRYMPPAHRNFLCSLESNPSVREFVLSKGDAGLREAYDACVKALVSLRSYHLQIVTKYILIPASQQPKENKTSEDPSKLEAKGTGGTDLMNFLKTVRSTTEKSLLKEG
Excerpt: as §3

The test system of assay [4] is AML cells. Briefly: Clonogenicity of AML cells. It counts as cell-based, human. The method, then:
MOLM-14 and THP-1 were treated with either DMSO control or mono-aziridine dimeric naphthoquinone or bis-aziridinyl dimeric naphthoquinone compounds at concentrations of 0.1, 1, 10 and 100 μM (micromolar) for 24 hours. The cells then were washed with growth medium and resuspended in growth medium and methylcellulose with or without DMSO or the treatment compounds. After 7 or 13 days (MOLM-14 or THP-1, respectively), treatment was terminated by addition of 1.0 mg/mL, iodonitrotetrazolium chloride (INT; Sigma Aldrich®) and read 24 hours later with an automated colony counter (Symbiosis®). Data were analyzed and graphed using GraphPad Prism® software.
as §2

A further assay deals with MOLM-14 cells. Nature of the assay: WST-1 cell proliferation assay, MOLM-14. It counts as cell-based, human. On the procedure:
(§4) Cell lines were seeded into 96-well plates the afternoon prior to treatment. Approximately 18 hours later, bis and mono-aziridine dimeric naphthoquinone compounds were semi-serially diluted in dimethyl sulfoxide (DMSO) and then growth medium, and added to cells. Plates were incubated for 72 hours prior to addition of WST-1 (Promega®). Plates were read after 4 additional hours of incubation at 37° C. using a Bio-Tek Synergy® HT plate reader (Bio-Tek®). Data were analyzed and graphed using GraphPad Prism® Software (Graph Pad®).
as §1
To investigate antiproliferative activity of amino-dimeric naphthoquinones against AML cells, an MTT-like cell proliferation assay was performed in the AML cell lines using WST-1 (water soluble tetrazolium salts; Promega®). MOLM-14 and AML-D cells, as well as normal hematopoietic bone marrow cells from a healthy donor, were exposed to a range of concentrations of Compound 101. Human leukemia cells were cultured in the presence of the compound for 72 hours (48 hours for primary cells) and WST-1 reagent was then added. The cells then were monitored for cell growth or the number of cells proliferating and the IC50 calculated. The IC50 is the concentration at which 50% of the cells are not proliferating compared to control cells treated with vehicle. See FIG. 2A, FIG. 2B, and FIG. 2C for representative graphs of these IC50 determinations.

For assay [5], the system named is MV4-11 cells. Nature of the assay: Cell survival assay (trypan blue exclusion), MV4-11. Format: cell-based, human. The method, then: MOLM-.14 and THP-1 cells were seeded in 96-well plates and treated with DMSO, mono- and bis-aziridinyl dimeric naphthoquinone compounds, or dimethylamine dimeric naphthoquinone Compound 114 as previously described. Cells were incubated for 72 hours, and then counted using trypan blue exclusion on the Countess® automated cell counter (Life Technologies®). Cell counts were performed in duplicates, and the averages were graphed using GraphPad Prism® software (GraphPad®).
Cell survival was determined using trypan blue exclusion as described above, in which cells are plated and the following day treated similarly to the proliferation assay. Compound 102 (also referred to here as “66”) was effective in decreasing cell number at increasing concentrations of compound in MV4-11 cells.

The subject of assay [6] is MV4-11 cells. Nature of the assay: WST-1 cell proliferation assay, MV4-11. It counts as cell-based, human. The note with it: cell proliferation. On the procedure: as §4, §1
Background: Tetrazolium dyes change colour on reduction, which living cells bring about.

A further assay concerns AML blasts. Briefly: γH2AX foci in treated AML blasts. Format: cell-based.
In the next assay the test system is THP-1 cells. Briefly: WST-1 cell proliferation assay, THP-1. As to conditions: Homo sapiens. It counts as cell-based. On the procedure:
as §4, §1

Entries after “also recorded” stand apart in the source; their conditions may differ. Read-outs that look alike come from different tables or passages of the source.

For orientation: inhibition means the share of the control response that was lost under treatment. For orientation: IC50 means the point on the concentration scale where inhibition reaches its midpoint. For the compound `O=C1C(NCCO)=C(C2=C(NCCO)C(=O)c3ccccc3C2=O)C(=O)c2ccccc21` [Compound 102, 3,3′-[(2-hydroxyethyl)amino]-2,2′-binaphthalenyl-1,1′,4,4′-tetrone], the “potency relative to other naphthoquinones (atovaquone, vitamin K) against AML cells” value in the assay on AML cells [1] was 25-30 fold. The “inhibition of IDO-2” value against IDO-2 is on record as “not”. Also, in assay [2], the “inhibition of TDO” value is recorded as “not”. In addition, the ROS production entry in the assay with MV4-11 cells [3] (Example 13, cells not named in the block, 2-6 hours) was “dose-dependent increase in ROS production”. In addition, the “ROS levels, MV4-11” value in the assay with MV4-11 cells [3] (at IC50 concentration) is “ROS levels significantly peaked after 2 hours and returned to baseline within 24 hours”. On IDO-1, this compound showed an inhibition at 1 µM of 37%. For the same compound, 10 µM produced 79% inhibition against IDO-1. Besides, in the assay on AML cells [4], the “inhibition of clonogenicity of AML cells” value was “effectively inhibited clonogenicity of AML cells in a dose-dependent manner; also recorded: potent (nanomolar) inhibition of colony formation”. The IC50 with MOLM-14 cells (Homo sapiens, MOLM-14, Table 2, cell proliferation, read-out: MOLM14 IC50) is 0.16 ± 0.01 µM; with MOLM-14 cells (Homo sapiens, MOLM-14, Table 3, cell proliferation, read-out: MOLM14 IC50), 0.16 ± 0.01 µM; in the assay on MOLM-14 cells (Homo sapiens, MOLM-14, Table 7, cell proliferation, read-out: IC50 (μM) MOLM-14), 0.16 µM; with MV4-11 cells [6] (Homo sapiens, MV4-11, Table 2, read-out: MV411 IC50), 0.2 ± 0.2 µM; in the assay with MV4-11 cells [6] (Homo sapiens, MV4-11, Table 3, read-out: MV411 IC50) it was 0.2 ± 0.2 µM; with MV4-11 cells [6] (Homo sapiens, MV4-11, Table 7, read-out: IC50 (μM) MV411) it was 0.2 µM. Besides, in the assay with MV4-11 cells [5], the “cell survival, MV4-11” value is given as “dose-dependent reduction in cell survival”. For the same compound, the “DNA damage (γH2AX foci)” value with AML blasts is reported as “concomitant increase in DNA damage”.
Consider `O=C1C(Cl)=C(C2=C(N3CC3)C(=O)c3ccccc3C2=O)C(=O)c2ccccc21` [Compound 106, 3-(aziridin-1-yl)-3′-chloro-[2,2′-binaphthalene]-1,1′ 4,4′-tetrone], for which the IC50 was determined as 7700 ± 1300 nM with THP-1 cells (THP-1, read-out: IC50 THP1 (n)); 7700 ± 1300 nM with THP-1 cells (THP-1, read-out: IC50 THP-1); 3.9 ± 1 µM with MOLM-14 cells (Homo sapiens, MOLM-14, read-out: IC50 MOLM-14); 3.9 ± 1 µM with MOLM-14 cells (Homo sapiens, MOLM-14, read-out: IC50 MOLM-14 (n)).
In the case of “3-chloro-3′-hydroxy dimeric naphthoquinone [Compound 144, reference compound]”, the concentration for half-maximal inhibition (IC50) in the assay on MOLM-14 cells (Table 1, cell proliferation, read-out: MOLM14 IC50) turned out to be 6.5 ± 0.28 µM; with MOLM-14 cells (Table 7, cell proliferation, read-out: IC50 (μM) MOLM-14), 6.3 µM; in the assay on MV4-11 cells [6] (Table 1, read-out: MV411 IC50), 3 ± 0.07 µM; with MV4-11 cells [6] (Table 7, read-out: IC50 (μM) MV411) it was 3 µM.
